Patent US4182774A, “Method of inhibiting blood platelet aggregation with 2-amino-3-(5- and 6-)benzoylphenylacetic acids, esters and metal salts thereof” (A. H. Robins Company, Incorporated, priority 1978, dated 1980)

How the values were obtained:
[1] = tested on: Evans Blue-Carrageenan Pleural Effusion; assay: Modification of the Evans Blue-Carrageenan Pleural Effusion Assay (anti-inflammatory activity); type: in vivo; conditions: relative to 4-amino-3-benzoylphenylacetic acid; method of Sancilio
Description: The prior art (South African Patent 68/4682) discloses 4-amino-3-benzoylphenylacetic acid, m.p. 135°-7° C. The compound was prepared and tested for anti-inflammatory activity by the method of Sancilio referred to immediately hereinabove.

[2] = tested on: Collagen-Induced Platelet Aggregation; assay: Collagen-induced platelet aggregation after oral dosing of rats (platelet rich plasma 2 h after dose); type: in vivo, rat
Description: The procedure used is essentially that as described by Born, J. of Phys. […] Rats were orally administered test drugs and after two hours the rats were bled and platelet rich plasma obtained. Collagen was added to the platelet rich plasma to induce platelet aggregation and comparisons were made between control and treated samples.

[3] = tested on: collagen-induced platelet aggregation in rabbit plasma; assay: Inhibition of collagen-induced platelet aggregation in rabbit plasma; type: cell-based; conditions: Table III
Text: ^1 Concentration required to inhibit aggregation by 50%.

[4] = tested on: Adenosine Diphosphate-Induced Platelet Aggregation-Rabbit Plasma; assay: In vitro inhibition of adenosine diphosphate-induced platelet aggregation in rabbit plasma; type: cell-based; conditions: Table IV, ADP
Text: Effects on Adenosine Diphosphate-Induced
Platelet Aggregation-Rabbit Plasma

[5] = Table IV comment
[6] = Oryctolagus cuniculus, Platelet, 1.0 mM, read-out: Percent Inhibition
[7] = Table I, 10.00 mg/kg PO, rats, collagen
[8] = Table I, 100.00 mg/kg PO, rats, collagen
[9] = Table I, 31.60 mg/kg PO, rats, collagen

**Q.** Which “Anti-inflammatory activity, times the activity of the prior art 4-amino-3-benzoylphenylacetic acid” value (“Anti-inflammatory activity” for short) [1] does the source give for `Nc1cccc(C(=O)c2ccccc2)c1CC(=O)O` [2-amino-6-benzoylphenylacetic acid] here?
**A.** Its value is about 3 times.

**Q.** For `CC(=O)Oc1ccccc1C(=O)O` [Acetylsalicylic Acid, reference compound], which “Percent Reduction in Aggregation” value ([2]; Table II, 316.0 mg/kg PO, 2 rats) is on record?
**A.** The value was -74%.

**Q.** And the Estimated IC50 (concentration required to inhibit aggregation by 50%) [3]?
**A.** The Estimated IC50 (concentration required to inhibit aggregation by 50%) was 23 µM.

**Q.** With `Nc1ncnc2c1ncn2[C@@H]1O[C@H](CO)[C@@H](O)[C@H]1O` [Adenosine] as the compound, how does the inhibition at 1000 µM [4, 6] read?
**A.** Its inhibition at 1000 µM is 84%.

**Q.** For `Nc1c(CC(=O)O)cccc1C(=O)c1ccccc1` [Example 3, 2-Amino-3-benzoylphenylacetic Acid], which “Anti-inflammatory activity” value [1] is on record?
**A.** The value was “about 39 times”.

**Q.** For `Nc1c(CC(=O)O)cc(Cl)cc1C(=O)c1ccccc1` [Example 6, 2-Amino-3-benzoyl-5-chlorophenylacetic Acid Hemihydrate], which “Percent Reduction in Aggregation” value [2, 7] is on record?
**A.** Its value is -36%.

**Q.** And the “Percent Reduction in Aggregation” value [2, 8]?
**A.** Its value is -76%.

**Q.** Which results are given for `Nc1c(CC(=O)O)cccc1C(=O)c1ccccc1` [Example 8, Sodium 2-amino-3-benzoylphenylacetate Dihydrate]?
**A.** Percent Reduction in Aggregation ([2]; Table I, 8.00 mg/kg PO, rats, collagen): -63%; Percent Reduction in Aggregation ([2]; Table II, 8.0 mg/kg PO, 3 rats): -63%; Estimated IC50 (concentration required to inhibit aggregation by 50%) [3]: 0.2 µM; Estimated IC50 (concentration required to inhibit aggregation by 50%), value in parentheses [3]: 0.2 µM; inhibition at 100 µM ([4]; Oryctolagus cuniculus, Platelet, 0.1 mM, read-out: Percent Inhibition): 4%; inhibition at 1000 µM [4, 6]: 8%; inhibition at 10000 µM ([4]; Oryctolagus cuniculus, Platelet, 10.0 mM, read-out: Percent Inhibition): 82%; Estimated IC50 (Comment) [4]: 4000 µM

**Q.** With `CCOC(=O)Cc1cccc(C(=O)c2ccccc2)c1N` [Example 9, Ethyl 2-amino-3-benzoylphenylacetate] as the compound, how does the “Percent Reduction in Aggregation” value [2, 7] read?
**A.** The value was -49%.

**Q.** And the “Percent Reduction in Aggregation” value [2, 8]?
**A.** Its value is -75%.

**Q.** Which “Percent Reduction in Aggregation” value [2, 9] does the source give for `CN(C)c1c(CC(=O)O)cccc1C(=O)c1ccccc1` [Example 12, 2-Dimethylamino-3-benzoylphenylacetic Acid] here?
**A.** The value was -56%.

**Q.** With `Nc1c(CC(=O)O)cccc1C(=O)c1ccc(Cl)cc1` [Example 14, Sodium 2-amino-3-(4-chlorobenzoyl)phenylacetate Hydrate] as the compound, how does the “Percent Reduction in Aggregation” value [2, 9] read?
**A.** Its value is -27%.

**Q.** What about the “Percent Reduction in Aggregation” value [2, 8] of the same compound?
**A.** The value was -65%.

**Q.** Which results are given for `CC(C(=O)[O-])c1cccc(C(=O)c2ccccc2)c1N.O.[Na+]` (stereo not drawn) [Example 15, Sodium 2-amino-3-benzoyl-α-methylphenylacetate Hydrate]?
**A.** Percent Reduction in Aggregation ([2]; Table I, 3.00 mg/kg PO, rats, collagen): -56%; Percent Reduction in Aggregation [2, 9]: -48%; Percent Reduction in Aggregation [2, 8]: -76%

**Q.** Which “Percent Reduction in Aggregation” value ([2]; Table I, 0.20 mg/kg PO, rats, collagen, Hydrate, 0.2 mg/kg) does the source give for `Nc1c(CC(=O)O)cccc1C(=O)c1ccccc1` [Example 16, Potassium 2-amino-3-benzoylphenylacetate Hydrate] here?
**A.** The value was -56%.

**Q.** With `COc1ccc(C(=O)c2cccc(CC(=O)O)c2N)cc1` [Example 24, 2-Amino-3-(4-methoxybenzoyl)phenylacetic Acid] as the compound, how does the “Percent Reduction in Aggregation” value ([2]; Table I, 0.00063 mg/kg PO, rats, collagen) read?
**A.** The value was -73%.

**Q.** And the “Percent Reduction in Aggregation” value ([2]; Table I, 4.00 mg/kg PO, rats, collagen)?
**A.** The value was -88%.

**Q.** What about the “Percent Reduction in Aggregation” value ([2]; Table I, 25.00 mg/kg PO, rats, collagen) of the same compound?
**A.** Its value is -71%.

**Q.** What about the “Percent Reduction in Aggregation” value [2, 8] of the same compound?
**A.** The value was -81%.

**Q.** Which “Percent Reduction in Aggregation” value ([2]; Table I, 0.20 mg/kg PO, rats, collagen, Trihydrate, 0.2 mg/kg) does the source give for `Nc1c(CC(=O)O)cccc1C(=O)c1ccccc1` [Example 25, Magnesium 2-amino-3-benzoylphenylacetate Trihydrate] here?
**A.** The value was -25%.

**Q.** Which results are given for `Nc1c(CC(=O)O)cccc1C(=O)c1ccccc1` [Example 27, Sodium 2-Amino-3-benzoylphenylacetate Hydrate]?
**A.** Percent Reduction in Aggregation ([2]; Table I, 0.00032 mg/kg PO, rats, collagen): -76%; Percent Reduction in Aggregation ([2]; Table I, 1.30 mg/kg PO, rats, collagen): -44%; Percent Reduction in Aggregation ([2]; Table I, 5.10 mg/kg PO, rats, collagen): -68%; Percent Reduction in Aggregation [2, 8]: -77%

**Q.** Which Estimated IC50 (concentration required to inhibit aggregation by 50%) [3] does the source give for `O=C(O)c1ccccc1Nc1cccc(C(F)(F)F)c1` [Flufenamic Acid] here?
**A.** The Estimated IC50 (concentration required to inhibit aggregation by 50%) was 2 µM.

**Q.** For `CCCCC1C(=O)N(c2ccccc2)N(c2ccccc2)C1=O` [Phenylbutazone], which “Percent Reduction in Aggregation” value ([2]; Table II, 50.0 mg/kg PO, 2 rats) is on record?
**A.** The value was -74%.

**Q.** And the Estimated IC50 (concentration required to inhibit aggregation by 50%) [3]?
**A.** The Estimated IC50 (concentration required to inhibit aggregation by 50%) was 150 µM.

**Q.** And the inhibition at 400 µM ([4]; Oryctolagus cuniculus, Platelet, 0.4 mM, read-out: Percent Inhibition)?
**A.** The inhibition at 400 µM was 3%.

**Q.** What about the inhibition at 800 µM ([4]; Oryctolagus cuniculus, Platelet, 0.8 mM, read-out: Percent Inhibition) of the same compound?
**A.** Its inhibition at 800 µM is 2%.

**Q.** Which “Percent Inhibition” value ([4]; 0.05 mM) does the source give for `O=C(O)c1ccccc1O` [Salicyclic Acid] here?
**A.** The value was 7%.

**Q.** What about the “Percent Inhibition” value ([4]; 0.50 mM) of the same compound?
**A.** Its value is 7%.

**Q.** And the “Percent Inhibition” value ([4]; 1.0 mM)?
**A.** The value was 12%.

**Q.** What about the “Percent Inhibition” value ([4]; 10.0 mM) of the same compound?
**A.** The value was 20%.

**Q.** What about the “Comment: solubility precludes higher testing” value [5] of the same compound?
**A.** Its value is “precludes higher”.

**Q.** Which “Anti-inflammatory activity” value [1] does the source give for `Nc1c(CC(=O)[O-])cccc1C(=O)c1ccccc1.[Na+]` [sodium 2-amino-3-benzoylphenylacetate] here?
**A.** The value was about 48 times.
